Measurements taken from PMC2991631 (Biochemical pharmacology, 2010).
Like-named read-outs stand apart in the source and are kept apart here.

Columns and labels:
[1] = system: carboxylesterases (CE) in human liver microsomal extracts; experiment: CE activity; type: biochemical; conditions: 10μM benzil
[2] = system: carboxylesterases (hiCE, hCE1) in human liver microsomal extracts; type: biochemical; conditions: 10μM benzil
[3] = liver microsomal extracts, typical

O=C(C(=O)c1ccccc1)c1ccccc1 [benzil]
CE activity + benzil ([1]; liver microsomal extract HG03): 640 ± 97 nmol/mg/min
Loss in CE activity + benzil ([1]; liver microsomal extract HG03): 5935 nmol/mg/min
Loss in CE activity + benzil [%] ([1]; liver microsomal extract HG03): 90.3%
CE activity + benzil ([1]; liver microsomal extract HG74): 854 ± 97 nmol/mg/min
Loss in CE activity + benzil ([1]; liver microsomal extract HG74): 6353 nmol/mg/min
Loss in CE activity + benzil [%] ([1]; liver microsomal extract HG74): 88.2%
CE activity + benzil ([1]; liver microsomal extract HG93): 521 ± 86 nmol/mg/min
Loss in CE activity + benzil ([1]; liver microsomal extract HG93): 4207 nmol/mg/min
Loss in CE activity + benzil [%] ([1]; liver microsomal extract HG93): 89.0%
CE activity + benzil ([1]; liver microsomal extract HG95): 469 ± 45 nmol/mg/min
Loss in CE activity + benzil ([1]; liver microsomal extract HG95): 4656 nmol/mg/min
Loss in CE activity + benzil [%] ([1]; liver microsomal extract HG95): 90.9%
CE activity + benzil ([1]; liver microsomal extract HG103): 448 ± 25 nmol/mg/min
Loss in CE activity + benzil ([1]; liver microsomal extract HG103): 3258 nmol/mg/min
Loss in CE activity + benzil [%] ([1]; liver microsomal extract HG103): 87.9%
CE activity + benzil ([1]; liver microsomal extract HH13): 389 ± 41 nmol/mg/min
Loss in CE activity + benzil ([1]; liver microsomal extract HH13): 504 nmol/mg/min
Loss in CE activity + benzil [%] ([1]; liver microsomal extract HH13): 56.4%
CE activity + benzil ([1]; liver microsomal extract HH61): 406 ± 21 nmol/mg/min
Loss in CE activity + benzil ([1]; liver microsomal extract HH61): 5472 nmol/mg/min
Loss in CE activity + benzil [%] ([1]; liver microsomal extract HH61): 93.1%
CE activity + benzil ([1]; liver microsomal extract HH74): 377 ± 7.8 nmol/mg/min
Loss in CE activity + benzil ([1]; liver microsomal extract HH74): 3329 nmol/mg/min
Loss in CE activity + benzil [%] ([1]; liver microsomal extract HH74): 89.8%
CE activity + benzil ([1]; liver microsomal extract HK37): 476 ± 58 nmol/mg/min
Loss in CE activity + benzil ([1]; liver microsomal extract HK37): 5856 nmol/mg/min
Loss in CE activity + benzil [%] ([1]; liver microsomal extract HK37): 92.5%
CE activity + benzil ([1]; liver microsomal extract SD003): 439 ± 42 nmol/mg/min
Loss in CE activity + benzil ([1]; liver microsomal extract SD003): 4804 nmol/mg/min
Loss in CE activity + benzil [%] ([1]; liver microsomal extract SD003): 91.6%
CE activity + benzil ([1]; liver microsomal extract SD004): 552 ± 35 nmol/mg/min
Loss in CE activity + benzil ([1]; liver microsomal extract SD004): 5070 nmol/mg/min
Loss in CE activity + benzil [%] ([1]; liver microsomal extract SD004): 90.2%
CE activity + benzil ([1]; liver microsomal extract SD104): 507 ± 48 nmol/mg/min
Loss in CE activity + benzil ([1]; liver microsomal extract SD104): 4881 nmol/mg/min
Loss in CE activity + benzil [%] ([1]; liver microsomal extract SD104): 90.6%
CE activity + benzil ([1]; liver microsomal extract SD120): 367 ± 27 nmol/mg/min
Loss in CE activity + benzil ([1]; liver microsomal extract SD120): 4128 nmol/mg/min
Loss in CE activity + benzil [%] ([1]; liver microsomal extract SD120): 91.8%
CE activity + benzil ([1]; liver microsomal extract SD123): 544 ± 29 nmol/mg/min
Loss in CE activity + benzil ([1]; liver microsomal extract SD123): 5401 nmol/mg/min
Loss in CE activity + benzil [%] ([1]; liver microsomal extract SD123): 90.9%
CE activity + benzil ([1]; liver microsomal extract SD124): 268 ± 11 nmol/mg/min
Loss in CE activity + benzil ([1]; liver microsomal extract SD124): 3140 nmol/mg/min
Loss in CE activity + benzil [%] ([1]; liver microsomal extract SD124): 92.1%
CE activity + benzil ([1]; liver microsomal extract SD128): 713 ± 2.7 nmol/mg/min
Loss in CE activity + benzil ([1]; liver microsomal extract SD128): 5600 nmol/mg/min
Loss in CE activity + benzil [%] ([1]; liver microsomal extract SD128): 88.7%
CE activity + benzil ([1]; liver microsomal extract SD132): 935 ± 79 nmol/mg/min
Loss in CE activity + benzil ([1]; liver microsomal extract SD132): 7259 nmol/mg/min
Loss in CE activity + benzil [%] ([1]; liver microsomal extract SD132): 88.6%
CE activity + benzil ([1]; liver microsomal extract SD134): 322 ± 43 nmol/mg/min
Loss in CE activity + benzil ([1]; liver microsomal extract SD134): 220 nmol/mg/min
Loss in CE activity + benzil [%] ([1]; liver microsomal extract SD134): 40.6%
CE activity + benzil ([1]; liver microsomal extract SD136): 314 ± 35 nmol/mg/min
Loss in CE activity + benzil ([1]; liver microsomal extract SD136): 2882 nmol/mg/min
Loss in CE activity + benzil [%] ([1]; liver microsomal extract SD136): 90.1%
reduction of CE activity [1, 3]: 80–90%
CPT-11 hydrolysis + benzil ([2]; liver microsomal extract HG03): 6.62 ± 0.16 pmol/mg/h
Loss in CPT-11 hydrolysis + benzil ([2]; liver microsomal extract HG03): 37.6 pmol/mg/h
Loss in CPT-11 hydrolysis + benzil [%] ([2]; liver microsomal extract HG03): 85%
CPT-11 hydrolysis + benzil ([2]; liver microsomal extract HG74): 6.25 ± 0.13 pmol/mg/h
Loss in CPT-11 hydrolysis + benzil ([2]; liver microsomal extract HG74): 33.6 pmol/mg/h
Loss in CPT-11 hydrolysis + benzil [%] ([2]; liver microsomal extract HG74): 84.3%
CPT-11 hydrolysis + benzil ([2]; liver microsomal extract HG93): 4.58 ± 0.10 pmol/mg/h
Loss in CPT-11 hydrolysis + benzil ([2]; liver microsomal extract HG93): 26.0 pmol/mg/h
Loss in CPT-11 hydrolysis + benzil [%] ([2]; liver microsomal extract HG93): 85.0%
CPT-11 hydrolysis + benzil ([2]; liver microsomal extract HG95): 5.39 ± 0.09 pmol/mg/h
Loss in CPT-11 hydrolysis + benzil ([2]; liver microsomal extract HG95): 19.1 pmol/mg/h
Loss in CPT-11 hydrolysis + benzil [%] ([2]; liver microsomal extract HG95): 78.0%
CPT-11 hydrolysis + benzil ([2]; liver microsomal extract HG103): 4.22 ± 0.10 pmol/mg/h
Loss in CPT-11 hydrolysis + benzil ([2]; liver microsomal extract HG103): 28.3 pmol/mg/h
Loss in CPT-11 hydrolysis + benzil [%] ([2]; liver microsomal extract HG103): 87.0%
CPT-11 hydrolysis + benzil ([2]; liver microsomal extract HH13): 3.94 ± 0.12 pmol/mg/h
Loss in CPT-11 hydrolysis + benzil ([2]; liver microsomal extract HH13): 30.0 pmol/mg/h
Loss in CPT-11 hydrolysis + benzil [%] ([2]; liver microsomal extract HH13): 88.4%
CPT-11 hydrolysis + benzil ([2]; liver microsomal extract HH61): 2.80 ± 0.007 pmol/mg/h
Loss in CPT-11 hydrolysis + benzil ([2]; liver microsomal extract HH61): 19.4 pmol/mg/h
Loss in CPT-11 hydrolysis + benzil [%] ([2]; liver microsomal extract HH61): 87.4%
CPT-11 hydrolysis + benzil ([2]; liver microsomal extract HH74): 2.49 ± 0.04 pmol/mg/h
Loss in CPT-11 hydrolysis + benzil ([2]; liver microsomal extract HH74): 12.9 pmol/mg/h
Loss in CPT-11 hydrolysis + benzil [%] ([2]; liver microsomal extract HH74): 83.8%
CPT-11 hydrolysis + benzil ([2]; liver microsomal extract HK37): 4.31 ± 0.02 pmol/mg/h
Loss in CPT-11 hydrolysis + benzil ([2]; liver microsomal extract HK37): 31.0 pmol/mg/h
Loss in CPT-11 hydrolysis + benzil [%] ([2]; liver microsomal extract HK37): 87.8%
CPT-11 hydrolysis + benzil ([2]; liver microsomal extract SD003): 8.00 ± 0.01 pmol/mg/h
Loss in CPT-11 hydrolysis + benzil ([2]; liver microsomal extract SD003): 46.6 pmol/mg/h
Loss in CPT-11 hydrolysis + benzil [%] ([2]; liver microsomal extract SD003): 85.4%
CPT-11 hydrolysis + benzil ([2]; liver microsomal extract SD004): 4.38 ± 0.07 pmol/mg/h
Loss in CPT-11 hydrolysis + benzil ([2]; liver microsomal extract SD004): 29.5 pmol/mg/h
Loss in CPT-11 hydrolysis + benzil [%] ([2]; liver microsomal extract SD004): 87.1%
CPT-11 hydrolysis + benzil ([2]; liver microsomal extract SD104): 3.89 ± 0.32 pmol/mg/h
Loss in CPT-11 hydrolysis + benzil ([2]; liver microsomal extract SD104): 15.6 pmol/mg/h
Loss in CPT-11 hydrolysis + benzil [%] ([2]; liver microsomal extract SD104): 80.0%
CPT-11 hydrolysis + benzil ([2]; liver microsomal extract SD120): 6.00 ± 0.20 pmol/mg/h
Loss in CPT-11 hydrolysis + benzil ([2]; liver microsomal extract SD120): 37.8 pmol/mg/h
Loss in CPT-11 hydrolysis + benzil [%] ([2]; liver microsomal extract SD120): 86.4%
CPT-11 hydrolysis + benzil ([2]; liver microsomal extract SD123): 4.00 ± 0.09 pmol/mg/h
CPT-11 hydrolysis + benzil ([2]; liver microsomal extract SD124): 5.04 ± 0.09 pmol/mg/h
Loss in CPT-11 hydrolysis + benzil ([2]; liver microsomal extract SD124): 22.1 pmol/mg/h
Loss in CPT-11 hydrolysis + benzil [%] ([2]; liver microsomal extract SD124): 81.4%
CPT-11 hydrolysis + benzil ([2]; liver microsomal extract SD128): 4.03 ± 0.01 pmol/mg/h
Loss in CPT-11 hydrolysis + benzil ([2]; liver microsomal extract SD128): 25.5 pmol/mg/h
Loss in CPT-11 hydrolysis + benzil [%] ([2]; liver microsomal extract SD128): 86.4%
CPT-11 hydrolysis + benzil ([2]; liver microsomal extract SD132): 4.30 ± 0.01 pmol/mg/h
Loss in CPT-11 hydrolysis + benzil ([2]; liver microsomal extract SD132): 22.3 pmol/mg/h
Loss in CPT-11 hydrolysis + benzil [%] ([2]; liver microsomal extract SD132): 83.9%
CPT-11 hydrolysis + benzil ([2]; liver microsomal extract SD134): 2.57 ± 0.03 pmol/mg/h
Loss in CPT-11 hydrolysis + benzil ([2]; liver microsomal extract SD134): 14.9 pmol/mg/h
Loss in CPT-11 hydrolysis + benzil [%] ([2]; liver microsomal extract SD134): 85.3%
CPT-11 hydrolysis + benzil ([2]; liver microsomal extract SD136): 7.76 ± 0.18 pmol/mg/h
Loss in CPT-11 hydrolysis + benzil ([2]; liver microsomal extract SD136): 47.6 pmol/mg/h
Loss in CPT-11 hydrolysis + benzil [%] ([2]; liver microsomal extract SD136): 86.0%
reduction of yields of SN-38 produced [2, 3]: 80–90%
